From publication PMC12661400, “Oral bioavailable ITRI-148 degrades androgen receptor variants and overcomes antiandrogen resistance in advanced prostate cancer” (Neoplasia (New York, N.Y.), 2025)
Where “and” joins values, the source holds several entries; their conditions need not be identical. Equal values may be shown once. Read-outs that look alike come from different tables or passages of the source.

What was measured:
AR = AR degradation by immunoblotting in CRPC cells; assay type: cell-based
Description: Cell lysis, Western blotting, and AR ubiquitination were performed as described in [17]. Primary antibodies: AR (Millipore 06-680), AR-V7 (RevMAb Biosciences 31-1109-00), PSA (ABclonal A4355), NKX3-1 (Cell Signaling Technology 92998), GAPDH (Cell Signaling Technology 2118) and β-Actin (Sigma-Aldrich A5441).
Fig. 1 ITRI-148 induces degradation of both AR and AR-V7 proteins in CRPC cells. […] (B) Expression of Flag-tagged AR-V7 in 293T cells following ITRI-148 treatment. Cells transiently expressing Flag-AR-V7 were pretreated with 50 μg/mL cycloheximide for 1 hour, then exposed to ITRI-148 at the indicated concentrations for 8 hours. AR-V7 expression was detected using an anti-Flag antibody. (C) Representative immunoblots showing AR protein levels in VCaP and CWR22Rv1 cells after 48 hours of ITRI-148 treatment. An N-terminal AR antibody was used to detect both full-length AR and LBD-truncated variants (AR-V(ΔLBD)) in CWR22Rv1 cells, while AR-V7 was detected using an AR-V7-specific antibody. DC₅₀ values were calculated from normalized band intensities, and Dₘₐₓ represents the maximal degradation achieved at 10 μM ITRI-148. (D) Immunofluorescence staining of AR after 24 or 48 hours of ITRI-148 treatment, detected using an N-terminal AR antibody. […] (F) Western blot analysis of ectopically expressed wild-type (WT) and mutant Myc-tagged AR in DU145 cells following 24 hours of treatment with 10 μM ITRI-148. Quantified AR levels are as indicated. TEXT PRINTED IN THE PICTURE: (C) ITRI-148: DC50 (μM) AR CWR22Rv1: 1.23 ± 1.86; DC50 (μM) AR VCaP: 0.05 ± 0.03; DC50 (μM) AR-V7 CWR22Rv1: 1.20 ± 0.92; DC50 (μM) AR-V7 VCaP: 0.02 ± 0.02; Dmax (%) AR CWR22Rv1: 65.02 ± 19.91; Dmax (%) AR VCaP: 80.49 ± 5.61; Dmax (%) AR-V7 CWR22Rv1: 72.10 ± 3.15; Dmax (%) AR-V7 VCaP: 91.36 ± 2.05

[1] = Repeated-dose toxicity study: absolute organ weights; assay type: in vivo, Sprague-Dawley rats; conditions: rats
Description: Repeated-dose toxicity and toxicokinetic studies
Repeated-dose oral toxicity study and toxicokinetic (TK) profiling was conducted in Sprague-Dawley rats. ITRI-148 was administered once daily using oral gavage at doses of 100, 300, 600, and 1000 mg/kg/day for 7 consecutive days, followed by a 7-day recovery period. Each dose group comprised 3 animals designated for toxicokinetic (TK) analysis and 6 animals for dose-range finding (DRF) evaluation. Clinical observations, body weights, and food consumption were monitored daily throughout the dosing and recovery periods. […]
All samples were analyzed in duplicate. Hematology and serum clinical chemistry analyses were performed on Day 7 (end of dosing) and Day 14 (end of recovery). At necropsy, organ weights (including heart, liver, kidney, spleen, thymus, and adrenal glands) were recorded, and gross pathological changes were examined. All procedures were conducted in compliance with institutional animal care and use guidelines. […]
Targeting androgen receptor and the variants by an orally bioavailable
Proteolysis Targeting Chimeras compound in castration resistant prostate cancer

[2] = Pharmacokinetic analysis after oral dosing in mice; assay type: in vivo, BALB/c mice
Description: Six to eight-week-old male BALB/c (BALB/cAnNCrlBltw) mice (22-30 g) were purchased from BioLASCO Taiwan Co., Ilan, Taiwan. In vivo PK analysis of ITRI-148 was performed with 10 mg/kg for oral (PO, n = 3) dosing route. Blood samples from the mice were collected using Microvette® CB 300 EDTA blood collection tubes by a lancet at 0.167 h (IV only), 0.5, 1, 2, 4, 7 and 24 h time points. The plasma was then subjected to LC-MS analysis to quantitate the drug concentration using calibration curves that were established with drug standards prepared in mice plasma.

[3] = PO 100 mg/kg/day 7 days, Day 14 (recovery)
[4] = PO 300 mg/kg/day 7 days, Day 14 (recovery)
[5] = PO 600 mg/kg/day 7 days, Day 14 (recovery)
[6] = PO 1000 mg/kg/day 7 days, Day 7
[7] = PO 1000 mg/kg/day 7 days, Day 14 (recovery)
[8] = male, BALB/c, mouse, plasma, po, 10 mg/kg

O=C1CCC(N2C(=O)c3cccc(NCC(=O)N4CCC(N5CCC(C#Cc6ccc(C7CCN(C8=Nn9c(nnc9C(F)(F)F)CC8)CC7)cc6)CC5)CC4)c3C2=O)C(=O)N1 (stereo not drawn) [ITRI-148]
DC50 (AR; CWR22Rv1, 48 hours, read-out: DC50 AR): 1230 ± 1860 nM
Dmax AR (AR; CWR22Rv1, maximal degradation at 10 μM): 65.02 ± 19.91%
DC50 (AR; VCaP cells, read-out: half-maximal degradation concentration (DC50) for AR): ~50 nM
DC50 (AR; VCaP, 48 hours, read-out: DC50 AR): 50 ± 30 nM
Dmax AR (AR; VCaP, maximal degradation at 10 μM): 80.49 ± 5.61% and 80%
Absolute organ weight: Heart ([1]; PO 100 mg/kg/day 7 days, Day 7): 1.417 ± 0.443 g
Absolute organ weight: Kidney ([1]; PO 100 mg/kg/day 7 days, Day 7): 2.656 ± 0.136 g
Absolute organ weight: Liver ([1]; PO 100 mg/kg/day 7 days, Day 7): 13.915 ± 1.565 g
Absolute organ weight: Spleen ([1]; PO 100 mg/kg/day 7 days, Day 7): 0.536 ± 0.112 g
Absolute organ weight: Thymus ([1]; PO 100 mg/kg/day 7 days, Day 7): 0.419 ± 0.079 g
Absolute organ weight: adrenal glands ([1]; PO 100 mg/kg/day 7 days, Day 7): 0.056 ± 0.012 g
Absolute organ weight: Heart [1, 3]: 1.139 ± 0.079 g
Absolute organ weight: Kidney [1, 3]: 2.65 ± 0.021 g
Absolute organ weight: Liver [1, 3]: 11.06 ± 0.639 g
Absolute organ weight: Spleen [1, 3]: 0.538 ± 0.05 g
Absolute organ weight: Thymus [1, 3]: 0.319 ± 0.039 g
Absolute organ weight: adrenal glands [1, 3]: 0.084 ± 0.059 g
Absolute organ weight: Heart ([1]; PO 300 mg/kg/day 7 days, Day 7): 1.369 ± 0.173 g
Absolute organ weight: Kidney ([1]; PO 300 mg/kg/day 7 days, Day 7): 2.966 ± 0.426 g
Absolute organ weight: Liver ([1]; PO 300 mg/kg/day 7 days, Day 7): 13.69 ± 1.088 g
Absolute organ weight: Spleen ([1]; PO 300 mg/kg/day 7 days, Day 7): 0.558 ± 0.035 g
Absolute organ weight: Thymus ([1]; PO 300 mg/kg/day 7 days, Day 7): 0.377 ± 0.079 g
Absolute organ weight: adrenal glands ([1]; PO 300 mg/kg/day 7 days, Day 7): 0.058 ± 0.022 g
Absolute organ weight: Heart [1, 4]: 1.252 ± 0.229 g
Absolute organ weight: Kidney [1, 4]: 2.748 ± 0.366 g
Absolute organ weight: Liver [1, 4]: 12.08 ± 0.721 g
Absolute organ weight: Spleen [1, 4]: 0.629 ± 0.088 g
Absolute organ weight: Thymus [1, 4]: 0.314 ± 0.042 g
Absolute organ weight: adrenal glands [1, 4]: 0.06 ± 0.016 g
Absolute organ weight: Heart ([1]; PO 600 mg/kg/day 7 days, Day 7): 1.269 ± 0.209 g
Absolute organ weight: Kidney ([1]; PO 600 mg/kg/day 7 days, Day 7): 2.661 ± 0.129 g
Absolute organ weight: Liver ([1]; PO 600 mg/kg/day 7 days, Day 7): 13.396 ± 2.201 g
Absolute organ weight: Spleen ([1]; PO 600 mg/kg/day 7 days, Day 7): 0.509 ± 0.093 g
Absolute organ weight: Thymus ([1]; PO 600 mg/kg/day 7 days, Day 7): 0.319 ± 0.054 g
Absolute organ weight: adrenal glands ([1]; PO 600 mg/kg/day 7 days, Day 7): 0.058 ± 0.001 g
Absolute organ weight: Heart [1, 5]: 1.242 ± 0.08 g
Absolute organ weight: Kidney [1, 5]: 2.759 ± 0.179 g
Absolute organ weight: Liver [1, 5]: 12.382 ± 0.877 g
Absolute organ weight: Spleen [1, 5]: 0.594 ± 0.066 g
Absolute organ weight: Thymus [1, 5]: 0.394 ± 0.041 g
Absolute organ weight: adrenal glands [1, 5]: 0.07 ± 0.027 g
Absolute organ weight: Heart [1, 6]: 1.259 ± 0.118 g
Absolute organ weight: Kidney [1, 6]: 3.022 ± 0.127 g
Absolute organ weight: Liver [1, 6]: 13.349 ± 1.256 g
Absolute organ weight: Spleen [1, 6]: 0.388 ± 0.035 g
Absolute organ weight: Thymus [1, 6]: 0.121 ± 0.021 g
Absolute organ weight: adrenal glands [1, 6]: 0.068 ± 0.012 g
Absolute organ weight: Heart [1, 7]: 1.306 ± 0.066 g
Absolute organ weight: Kidney [1, 7]: 2.763 ± 0.229 g
Absolute organ weight: Liver [1, 7]: 11.072 ± 0.774 g
Absolute organ weight: Spleen [1, 7]: 0.506 ± 0.023 g
Absolute organ weight: Thymus [1, 7]: 0.355 ± 0.119 g
Absolute organ weight: adrenal glands [1, 7]: 0.062 ± 0.009 g
AUC/Dose ([2]; PO, 10 mg/kg, 0-24 h per dosing): 990.1 h⋅kg⋅ng/mL/mg
BA ([2]; PO, 10 mg/kg, bioavailability): 27.1 ± 0.5%
PK (PO, 10 mg/kg) BA ([2]; PO, bioavailability): 27.1%
AUC [2, 8]: 9900 ng·h/mL
Cmax [2, 8]: 733 ± 45 ng/mL
Tmax [2, 8]: 4 h
AUC(0-t) ([2]; male, BALB/c, mouse, plasma, PO, 10 mg/kg, between 0 and 24 h): 9900 ng·h/mL
